Data set [1] can be described thus: Cytotoxicity against mammalian cells (MTS assay). Type of data set: cell-based. As to conditions: human, HeLa cells (ATCC CCL-2.2). Summed up:
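HeLa cells exposed 72 h in RPMI1640 to compounds at 64 to 0.125 μg/ml, in triplicate. Viability measured as mitochondrial activity by MTS, and CC50 taken against a standard curve of serially diluted untreated cells.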
Background: Tetrazolium assays rely on reduction of a dye to a coloured formazan, in cell work by metabolically active cells.

A short description of data set [2]: Plasma stability (50% serum, LC/MS/MS). Type of data set: in vitro ADME. How it is done: Samples were taken after 2 min, 5min, 15min, 30min, 1h, 2h and 19h. Stability of compound was quantified by LC/MS/MS. Experiments were carried out by Pharmaron, Inc., (Beijing, China).
Data set [3] has as its system Enterococcus faecalis EF1509. The data set is described as follows: Murine peritoneal sepsis model. Type of data set: in vivo, C57BL/6J mice. As to conditions: 6jc48-1 100 mg/kg, ampicillin 300 mg/kg. The source says: Care of the mice met or exceeded the standards set forth by the National Institute of Health Guide for the care and use of laboratory animals and the AVMA panel on Euthanasia. All procedures in this study have been approved by the Institutional Animal Care and Use Committee (IACUC) at the University of Maryland Baltimore School of Medicine (Protocol number 02122005). Adult C57BL/6J mice (~18 grams, 8–10 weeks old) were used for all experiments. Mice were obtained from the Jackson Laboratory (Bar Harbor, Maine, USA) and housed in the IHV SPC animal core facility. Mice were fed standard chow (Harlan Laboratories) and water ad libitum. […] Infected animals (n = 5) were subsequently treated by intraperitoneal injection 30 min post-infection with 100 mg/kg of compound in 300 μL sterile saline solution, 5% Tween 80, 10% DMSO (V/V), ampicillin (300mg/kg), or vehicle (sterile saline solution, 5% Tween 80, 10% DMSO (V/V)) as positive and negative controls, respectively. Animals were closely observed during a period of 24 h and mice that show signs of severe sepsis were humanely euthanized. Mice were anesthetized by intraperitoneal injection of ketamine (80-100mg/kg) and xylazine (10–15 mg/kg). Once sedated, blood was collected by cardiac puncture. Immediately after blood collection the mice were euthanized by cervical dislocation. Spleens were harvested aseptically, weighed and homogenized in 500 μl of sterile saline solution using an IKA T10 basic disperser (IKA, Wilmington NC). Spleen homogenates were serially diluted and plated onto BHI agar plates. Bacterial counts were determined following 24 h incubation at 37°C and expressed as CFU per gram for spleen.
We established a murine model for sepsis to evaluate the efficacy of 6jc48-1 as an antibiotic agent in vivo. […] Based on the data obtained in the pharmacokinetic analysis, mice (n = 5) were inoculated intraperitoneally with E. faecalis EF1509 (~5 x 10^8 CFU/ animal) and treated after 30 min with compound 6jc48-1 (100 mg/kg IP), ampicillin (300 mg/kg IP) or vehicle. Animals were monitored for survival and after 24 h spleen samples were collected and analyzed for the presence of bacteria. Bacterial counts were determined by plating serial dilutions on BHI agar plates and compared to control treatment with ampicillin as measures of efficacy (Fig 5).

Data set [4] in a line: Tolerability in mice (maximum tolerated dose, clinical observations). As to conditions: C57BL/6J, mouse, in vivo, ip, 100 mg/kg, intraperitoneal, read-out: Dose safely administered intraperitoneally (preliminary maximum tolerated dose studies).
The nature of data set [5]: Liver microsome stability. The note with it: human liver microsomes, pH 7.4, 1h 37 °C. Type of data set: in vitro ADME. Here is the method: The in vitro microsome stability assay was performed using human liver microsomes and a Biomek FXP liquid handling workstation to deliver reagents to a 96 deep well plate on a shaking peltier with temperature controls. Human liver microsomes were purchased from Corning®. The test compound was incubated in an aqueous reaction mixture (200 ul total volume) consisting of human liver microsomes (150 mixed donor pool) and NADPH Regenerating System Solutions A and B (Corning®) in the presence of 100 mM potassium phosphate buffer (pH 7.4). The NADPH solution A comprises nicotinamide adenine dinucleotide phosphate (NADP+) and glucose 6-phosphate and solution B contains glucose-6-phosphate dehydrogenase. Solutions A and B were combined prior to adding to the reaction plate to generate a supply of NADPH. The NADPH was added last to simultaneously initiate the reactions. The final concentration of the test compound was 10 uM and the microsomal protein concentration was 0.5 mg/ml. After incubation at 37°C, the reaction was terminated at 0, 5, 10, 20, 30, 40, 50 and 60 minutes, respectively, by the addition of 600 uL of acetonitrile. Three replicates were run for each time point. The quenched reaction plate was centrifuged at 4500 rpm for 10 minutes. The supernatant was diluted 1:2 in 30% Methanol in water for LC/MS/MS analyses to monitor substrate depletion. Water was substituted for NADPH for the zero time-point samples. A control plate, without NADPH cofactor, was completed on the same day, using the same conditions.
The half-life (t1/2) was obtained using the equation below: t1/2=−0.693/slope
Where slope is the slope of the line formed by ln(% remaining test compound) vs. time. The in vitro intrinsic clearance (CLint) value was calculated using equation: CLint=(0.693/t1/2)(incubation volume(ul)/total microsomal protein(mg))
In general terms: Liver microsomes are a subcellular fraction often used to study metabolism.

On the set-up of data set [6]: method as in PMID 25987836. The note with it: IV, parent compound for comparison; cited from earlier work.

“And” between values parts separate entries of the source, which are not always exact repeats. Equal values may be shown once.

The CC50 is the concentration at which the toxic effect on the cells reaches its halfway point. A low value points to greater toxicity to the cells. What is called half-life is the time needed for the level to fall by half in the phase considered. In data set [1], `CN(C)c1ccc(/C=C/c2cc(-c3ccc(Br)cc3)cc(-c3ccc(Br)cc3)[o+]2)cc1` [6jc48-1] showed a cytotoxic concentration (CC50) at 72 h of more than 100 µg/mL. Moreover, in data set [2] (after 2 hours), the Stability in serum entry is recorded as “fully stable after 2 hours in serum”. Further, the “Compound remaining in serum” value in data set [2] (after 19h, 10 μg/ml) is 46%. The “Bacterial counts in spleen” value in data set [3] (IP treatment 30 min post-infection, spleen collected after 24 h) is reported as “significant bacterial clearance”. The “Survival of infected animals” value in data set [3] (n = 5, IP treatment 30 min post-infection, length of the experiment (24 h)) is “Four out of five”. Moreover, the MTD in data set [4] is not below 100 mg/kg. In data set [5] (read-out: Liver microsome stability Half-life), the half-life at 10 uM was more than 60 min. Further, the microsomal CLint at 10 uM in data set [5] (read-out: Liver microsome stability clearance) is less than 23 µL/min/mg.
One may read the Cmax as the maximum level reached in the sampled fluid or tissue. As for `CN1/C(=C/C=C/c2cc(-c3ccccc3)cc(-c3ccccc3)[o+]2)C(C)(C)c2ccccc21` [BAS-00127538, (1-Methyl-2,4-diphenyl-6-((1E,3E)-3-(1,3,3-trimethylindolin-2-ylidene)prop-1-en-1-yl)pyryl-1-ium) tetrafluoroborate, reference compound], in data set [6], the AUCInf was 27.9 ng·h/mL, the AUClast was 26.9 ng·h/mL, the Cl_obs is 711 mL/min/kg and the Cmax is reported as 101 ng/mL. Also, in data set [6], the T1/2 is 13.2 min and 13.6 min; the Vss_obs was 12.2 L/kg.
